Measurements as given in PubChem BioAssay AID1259407 (Chemical Carcinogenesis Research Information System (CCRIS), 2018).
Activity calls are given as the source filed them. No rule for the calls is given here.

System: CCRIS mutagenicity, Ames/micronucleus/aberration tests
Assay: CCRIS mutagenicity studies
[1] = Test System: AMES SALMONELLA TYPHIMURIUM, Strain/Indicator: TA100, Metabolic Activation: HAMSTER, LIVER, S-9, AROCLOR 1254 (10%), Method: PREINCUBATION
[2] = Test System: AMES SALMONELLA TYPHIMURIUM, Strain/Indicator: TA100, Metabolic Activation: NONE, Method: PREINCUBATION
[3] = Test System: AMES SALMONELLA TYPHIMURIUM, Strain/Indicator: TA100, Metabolic Activation: RAT, LIVER, S-9, AROCLOR 1254 (10%), Method: PREINCUBATION
[4] = Test System: AMES SALMONELLA TYPHIMURIUM, Strain/Indicator: TA1535, Metabolic Activation: HAMSTER, LIVER, S-9, AROCLOR 1254 (10%), Method: PREINCUBATION
[5] = Test System: AMES SALMONELLA TYPHIMURIUM, Strain/Indicator: TA1535, Metabolic Activation: NONE, Method: PREINCUBATION
[6] = Test System: AMES SALMONELLA TYPHIMURIUM, Strain/Indicator: TA1535, Metabolic Activation: RAT, LIVER, S-9, AROCLOR 1254 (10%), Method: PREINCUBATION

Structure (SMILES): CC(=O)NNc1ccccc1
- mutagenic call (Test System: AMES SALMONELLA TYPHIMURIUM, Strain/Indicator: TA97, Metabolic Activation: HAMSTER, LIVER, S-9, AROCLOR 1254 (5%), Method: PREINCUBATION): inactive; negative
- mutagenic call (Test System: AMES SALMONELLA TYPHIMURIUM, Strain/Indicator: TA97, Metabolic Activation: HAMSTER, LIVER, S-9, AROCLOR 1254 (10%), Method: PREINCUBATION): inactive; negative
- mutagenic call (Test System: AMES SALMONELLA TYPHIMURIUM, Strain/Indicator: TA97, Metabolic Activation: HAMSTER, LIVER, S-9, AROCLOR 1254 (30%), Method: PREINCUBATION): active; positive
- mutagenic call (Test System: AMES SALMONELLA TYPHIMURIUM, Strain/Indicator: TA97, Metabolic Activation: NONE, Method: PREINCUBATION): active; positive
- mutagenic call (Test System: AMES SALMONELLA TYPHIMURIUM, Strain/Indicator: TA97, Metabolic Activation: RAT, LIVER, S-9, AROCLOR 1254 (5, 10 OR 30%), Method: PREINCUBATION): inactive; negative
- mutagenic call (Test System: AMES SALMONELLA TYPHIMURIUM, Strain/Indicator: TA98, Metabolic Activation: HAMSTER, LIVER, S-9, AROCLOR 1254 (5, 10 OR 30%), Method: PREINCUBATION): inactive; negative
- mutagenic call (Test System: AMES SALMONELLA TYPHIMURIUM, Strain/Indicator: TA98, Metabolic Activation: NONE, Method: PREINCUBATION): inactive; negative
- mutagenic call (Test System: AMES SALMONELLA TYPHIMURIUM, Strain/Indicator: TA98, Metabolic Activation: RAT, LIVER, S-9, AROCLOR 1254 (5, 10 OR 30%), Method: PREINCUBATION): inactive; negative
- mutagenic call (Test System: AMES SALMONELLA TYPHIMURIUM, Strain/Indicator: TA100, Metabolic Activation: HAMSTER, LIVER, S-9, AROCLOR 1254 (5%), Method: PREINCUBATION): inactive; negative
- mutagenic call [1]: inactive; negative
- mutagenic call (Test System: AMES SALMONELLA TYPHIMURIUM, Strain/Indicator: TA100, Metabolic Activation: HAMSTER, LIVER, S-9, AROCLOR 1254 (30%), Method: PREINCUBATION): inactive; negative
- mutagenic call [2]: inactive; negative
- mutagenic call (Test System: AMES SALMONELLA TYPHIMURIUM, Strain/Indicator: TA100, Metabolic Activation: RAT, LIVER, S-9, AROCLOR 1254 (5%), Method: PREINCUBATION): inactive; negative
- mutagenic call [3]: inactive; negative
- mutagenic call (Test System: AMES SALMONELLA TYPHIMURIUM, Strain/Indicator: TA100, Metabolic Activation: RAT, LIVER, S-9, AROCLOR 1254 (30%), Method: PREINCUBATION): inactive; negative
- mutagenic call [4]: inactive; negative
- mutagenic call (Test System: AMES SALMONELLA TYPHIMURIUM, Strain/Indicator: TA1535, Metabolic Activation: HAMSTER, LIVER, S-9, AROCLOR 1254 (30%), Method: PREINCUBATION): inactive; negative
- mutagenic call [5]: active; positive
- mutagenic call (Test System: AMES SALMONELLA TYPHIMURIUM, Strain/Indicator: TA1535, Metabolic Activation: RAT, LIVER, S-9, AROCLOR 1254 (5%), Method: PREINCUBATION): inactive; negative
- mutagenic call [6]: inactive; negative
- mutagenic call (Test System: AMES SALMONELLA TYPHIMURIUM, Strain/Indicator: TA1535, Metabolic Activation: RAT, LIVER, S-9, AROCLOR 1254 (30%), Method: PREINCUBATION): inactive; negative

Structure (SMILES): COCC1CO1 (centres undefined)
- mutagenic call [1]: active; positive
- mutagenic call [2]: active; positive
- mutagenic call [3]: active; positive
- mutagenic call [4]: active; positive
- mutagenic call [5]: active; positive
- mutagenic call [6]: active; positive

Structure (SMILES): Nc1ccn([C@@H]2O[C@H](CO)[C@@H](O)C2O)c(=O)n1 (some centres undefined)
- mutagenic call (End Point: IN VITRO MICRONUCLEUS, Test System: CHINESE HAMSTER V79 CELLS, Metabolic Activation: NONE): active; positive
- mutagenic call (End Point: IN VITRO MICRONUCLEUS, Test System: V79 CELLS, Metabolic Activation: NONE): active; positive
- mutagenic call (End Point: In vitro chromosomal aberrations, Test System: Human lymphocytes, Metabolic Activation: None): active; positive (structural changes) (effects significant without chm)
- mutagenic call (End Point: In vitro micronucleus, Test System: Human lymphoblastoid TK6 cells, Metabolic Activation: None): active; positive (p<0.001)
- mutagenic call (Test System: AMES SALMONELLA TYPHIMURIUM, Strain/Indicator: TA98, Metabolic Activation: NONE, Method: STANDARD PLATE): inactive; negative
- mutagenic call (Test System: AMES SALMONELLA TYPHIMURIUM, Strain/Indicator: TA98, Metabolic Activation: S-9, Method: STANDARD PLATE): inactive; negative
- mutagenic call (Test System: AMES SALMONELLA TYPHIMURIUM, Strain/Indicator: TA100, Metabolic Activation: NONE, Method: STANDARD PLATE): inactive; negative
- mutagenic call (Test System: AMES SALMONELLA TYPHIMURIUM, Strain/Indicator: TA100, Metabolic Activation: S-9, Method: STANDARD PLATE): inactive; negative
- mutagenic call (Test System: AMES SALMONELLA TYPHIMURIUM, Strain/Indicator: TA102, Metabolic Activation: NONE, Method: STANDARD PLATE): inactive; negative
- mutagenic call (Test System: AMES SALMONELLA TYPHIMURIUM, Strain/Indicator: TA1537, Metabolic Activation: NONE, Method: STANDARD PLATE): inactive; negative
- mutagenic call (Test System: AMES SALMONELLA TYPHIMURIUM, Strain/Indicator: TA1537, Metabolic Activation: S-9, Method: STANDARD PLATE): inactive; negative
- mutagenic call (Test System: CHINESE HAMSTER V-79, Strain/Indicator: V-79 (HGPRT)/6-THIOGUANINE, Metabolic Activation: NONE): inactive; negative
- mutagenic call (Test System: CHINESE HAMSTER V-79, Strain/Indicator: V-79/6-THIOGUANINE, Metabolic Activation: NONE, Method: SUSPENSION/PLATE): active; positive
- mutagenic call (Test System: CHINESE HAMSTER V-79, Strain/Indicator: V-79/6-THIOGUANINE, Metabolic Activation: RAT, LIVER, HEPATOCYTES, Method: SUSPENSION/PLATE): inactive; negative
- mutagenic call (Test System: CHINESE HAMSTER V-79, Strain/Indicator: V-79/8-AZAGUANINE, Metabolic Activation: NONE, Method: STANDARD PLATE): active; positive
- mutagenic call (Test System: E. COLI, Strain/Indicator: WP2 (HCR), Metabolic Activation: NONE, Method: STANDARD PLATE): active; positive
- mutagenic call (Test System: E. COLI, Strain/Indicator: WP2 (HCR), Metabolic Activation: S-9, Method: STANDARD PLATE): active; positive
- mutagenic call (Test System: MOUSE LYMPHOMA, Strain/Indicator: L5178Y (TK+/TK-), Metabolic Activation: NONE, Method: MICROWELL): active; positive
- mutagenic call (Test System: MOUSE LYMPHOMA, Strain/Indicator: L5178Y (TK+/TK-), Metabolic Activation: NONE, Method: SUSPENSION/PLATE): active; positive
- mutagenic call (Test System: MOUSE LYMPHOMA, Strain/Indicator: L5178Y (TK+/TK-), Metabolic Activation: S-9, Method: MICROWELL): active; positive

Structure (SMILES): C/C=C(\C)CCl
- mutagenic call (Test System: AMES SALMONELLA TYPHIMURIUM, Strain/Indicator: TA100, Metabolic Activation: NONE, Method: LIQUID SUSPENSION): active; positive
- mutagenic call (Test System: AMES SALMONELLA TYPHIMURIUM, Strain/Indicator: TA100, Metabolic Activation: RAT, LIVER, S-9, Method: LIQUID SUSPENSION): active; positive

Structure (SMILES): OCCN1CCN(CCCN2c3ccccc3Sc3ccc(C(F)(F)F)cc32)CC1
- mutagenic call (Test System: AMES SALMONELLA TYPHIMURIUM, Strain/Indicator: TA98, Metabolic Activation: NONE): inactive; negative
- mutagenic call (Test System: AMES SALMONELLA TYPHIMURIUM, Strain/Indicator: TA98, Metabolic Activation: RAT, LIVER, S-9, PHENOBARBITAL AND 5,6-BENZOFLAVONE): inactive; negative
- mutagenic call (Test System: AMES SALMONELLA TYPHIMURIUM, Strain/Indicator: TA100, Metabolic Activation: NONE): inactive; negative
- mutagenic call (Test System: AMES SALMONELLA TYPHIMURIUM, Strain/Indicator: TA100, Metabolic Activation: RAT, LIVER, S-9, PHENOBARBITAL AND 5,6-BENZOFLAVONE): inactive; negative
- mutagenic call (Test System: AMES SALMONELLA TYPHIMURIUM, Strain/Indicator: TA1535, Metabolic Activation: NONE): inactive; negative
- mutagenic call (Test System: AMES SALMONELLA TYPHIMURIUM, Strain/Indicator: TA1535, Metabolic Activation: RAT, LIVER, S-9, PHENOBARBITAL AND 5,6-BENZOFLAVONE): inactive; negative
- mutagenic call (Test System: AMES SALMONELLA TYPHIMURIUM, Strain/Indicator: TA1537, Metabolic Activation: NONE): inactive; negative
- mutagenic call (Test System: AMES SALMONELLA TYPHIMURIUM, Strain/Indicator: TA1537, Metabolic Activation: RAT, LIVER, S-9, PHENOBARBITAL AND 5,6-BENZOFLAVONE): inactive; negative
- mutagenic call (Test System: E. COLI, Strain/Indicator: WP2 UVRA, Metabolic Activation: NONE): inactive; negative
- mutagenic call (Test System: E. COLI, Strain/Indicator: WP2 UVRA, Metabolic Activation: RAT, LIVER, S-9, PHENOBARBITAL AND 5,6-BENZOFLAVONE): inactive; negative
